Reference: US20220057378A1, “MICROBIAL MICROFLUIDIC BIOSENSOR” (priority 2015, published 2022)
Read-outs that look alike come from different tables or passages of the source.

Tests used:
[1] = tested on: As3; assay: microplate specificity test with on- and off-target heavy metals (fluorescence); assay type: cell-based, E. coli; conditions: on-target = 1, no-toxin control = 0; As 1.3, Cd 0.44, Cr(VI) 2, Cu 20, Pb 1, Hg 0.1, Co 20, Fe 500, Ni 1.7, Zn 7.6 μM
From the text: (§1) Each column represents the fluorescence response of a strain to the on-target metal (normalized to “1”) and all off-target metals, where “0” represents the unchanged response for the no-toxin control.
(§2) Although the ability to sense cobalt, iron, nickel, and zinc is of secondary importance, these heavy metals were included as potential off-target inducers because they may be present in the natural water supply under test. […] This combinatorial logic was implemented in algorithms.

[2] = tested on: Cd1; assay: as above; assay type: cell-based, E. coli; conditions: on-target = 1, no-toxin control = 0; As 1.3, Cd 0.44, Cr(VI) 2, Cu 20, Pb 1, Hg 0.1, Co 20, Fe 500, Ni 1.7, Zn 7.6 μM
From the text: as §1, §2

[3] = tested on: Cr5; assay: as above; assay type: cell-based, E. coli; conditions: on-target = 1, no-toxin control = 0; As 1.3, Cd 0.44, Cr(VI) 2, Cu 20, Pb 1, Hg 0.1, Co 20, Fe 500, Ni 1.7, Zn 7.6 μM
From the text: as §1, §2

[4] = tested on: Cu1; assay: as above; assay type: cell-based, E. coli; conditions: on-target = 1, no-toxin control = 0; As 1.3, Cd 0.44, Cr(VI) 2, Cu 20, Pb 1, Hg 0.1, Co 20, Fe 500, Ni 1.7, Zn 7.6 μM
From the text: as §1, §2

[5] = tested on: Pb2; assay: as above; assay type: cell-based, E. coli; conditions: on-target = 1, no-toxin control = 0; As 1.3, Cd 0.44, Cr(VI) 2, Cu 20, Pb 1, Hg 0.1, Co 20, Fe 500, Ni 1.7, Zn 7.6 μM
From the text: as §1, §2

[6] = tested on: E. coli MG1655; assay type: cell-based; conditions: for Number DE Genes: false discovery rate below 1%
From the text: RNA-Seq results for promoter activation in E. coli MG1655 in response to single and multiple toxin exposures at low and high concentrations: Our analysis of the sequencing data from RNA-Seq experiments to determine candidate genes that are induced upon toxin exposure consisted of three main tasks: sequence alignment, quantification of gene expression, and identification of differentially expressed genes. Sequence alignment: Reads were aligned to the reference E. coli K-12 substr. MG1655 genome using a tolerance of at most two mismatches per alignment to protect against sequencing errors. The alignment was performed using Bowtie software, 5 which is known to be very efficient in aligning reads to a reference genome. Without being limiting, Bowtie software 5 can be used for the alignment. Those skilled in the art will appreciate that there are many such software programs for performing alignments.
Quantification of gene expression: The expression level of each gene was determined as a function of the number of aligned reads mapping to the gene. […] Additionally, we implemented our own algorithms for sequence alignment and quantification of gene expression in order to crosscheck all results.
Identification of differentially expressed genes: Finally, a set of statistical and information theory algorithms were applied in order to extract not only differentially expressed (DE) genes for each toxin with respect to the control samples (pure water) but also toxin-specific genes. DESeq is a standard tool for identifying DE genes that allowed us to select sensitive genes with differential expression between the control samples (pure water) and the cells exposed to toxin. It assumes that the number of counts for each gene across experimental replicates follows a negative binomial distribution (8, 9). We considered genes with a False Discovery Rate (FDR) lower than 1% as DE in order to ensure statistically robust DE genes. […] Additionally, genes with the largest number of counts and expression levels are preferable in order to maximize the signal-to-noise ratio. When it is not possible to find toxin-specific genes, the next generation of good candidates is formed by those genes satisfying the above properties for a small subset of toxins (multiple-toxin response). It is desirable to have single-toxin-specific genes for several of the toxins in the combination in order to determine toxin-specific multi-gene-responses by means of logical operations. […] Therefore, we have developed information theoretic measures to improve the toxin separability. The core idea of the approach is that low entropies (or highly informative genes) correspond to toxin-specific genes, while large entropies (low information) are associated with scenarios in which DE fold-changes across different toxins are similar and should be discarded.
Milestone 2.1: Expose target cells to toxins of interest over four orders of magnitude of concentration and extract RNA: Three strains of bacteria were exposed to relevant levels of all toxins and extracted RNA. The toxin exposure protocol involves first growing a culture of bacterial cells to mid-log phase (OD≤0.2). […] Finally, cellular RNA was stabilized using Qiagen RNA Protect reagent, the cells were centrifuged, and the pellet was frozen at −80° C. To investigate the cellular RNA response to toxin insult, we exposed E. coli MG1655, E. coli LABEC01, and B. subtilis 168 cells to the toxins and concentrations shown in Table 7 and extracted RNA.
Milestone 2.5: Prepare isolated RNA for Illumina sequencing using vendor provided reagents and carry out sequencing: We have prepared libraries and carried out sequencing for all toxins of interest.

[7] = tested on: E. coli MG1655/Pb7; assay: 18-strain chip induction; assay type: cell-based
From the text: In an embodiment herein, the toxin response data across 18 unique sensing strains were also collected using a new chip design that houses 16 E. coli strains and 2 B. subtilis strains. The B. subtilis NCIB 3610/Amm3 construct is a “lights-off” sensor, meaning that GFP production drops when ammonium is introduced, following a slight increase due to faster growth on this preferred nitrogen source. […] By combining these sensor responses, we can identify cobalt by the unique response of Pb7 alone and lead by the unique combination of Zn6, Pb7, and Pb8 responses.

[8] = tested on: E. coli MG1655 strains Co2-Co4 and Co6-Co8; assay: plate reader validation of cobalt-sensing promoters (GFP fluorescence); assay type: cell-based; conditions: microplate wells, various concentrations of cobalt

[Co] [Cobalt]
fluorescence response of strain As3 (on-target arsenic) [1]: 0.30 | fluorescence response of strain Cd1 (on-target cadmium) [2]: 0.67 | fluorescence response of strain Cr5 (on-target chromium(VI)) [3]: −0.11 | fluorescence response of strain Cu1 (on-target copper) [4]: −0.01 | fluorescence response of strain Pb2 (on-target lead) [5]: 0.80 | response of the dadA promoter ([6]; RNA-Seq mean fold change): specific to cobalt alone | response of the hmp promoter ([6]; RNA-Seq mean fold change): specific to cobalt alone | response of the ilvB promoter ([6]; RNA-Seq mean fold change): specific to cobalt alone | response of the lipA promoter ([6]; RNA-Seq mean fold change): specific to cobalt alone | response of the mmuP promoter ([6]; RNA-Seq mean fold change): specific to cobalt alone | response of the soxR promoter ([6]; RNA-Seq mean fold change): specific to cobalt alone | response of the tehA promoter ([6]; RNA-Seq mean fold change): specific to cobalt alone | response of the ygbA promoter ([6]; RNA-Seq mean fold change): specific to cobalt alone | response of the yjbJ promoter ([6]; RNA-Seq mean fold change): specific to cobalt alone | response of the yqfA promoter ([6]; RNA-Seq mean fold change): specific to cobalt alone | Number DE Genes ([6]; high concentration): 1274 | Number DE Genes ([6]; low concentration): 609 | GFP response of strain Pb7 [7]: responds sensitively | GFP response to cobalt in the growth medium [8]: significantly respond
